The results in this text go back to the NIST ThermoML archive (doi:10.1016/j.tca.2010.06.003).

Numbers after ± are expanded uncertainties.

For the series the following is noted: for Normal melting temperature: Crystal; for Triple point temperature: Crystal 2, DTA.

`O=[N+]([O-])[O-].[K+]` [potassium nitrate]: the Normal melting temperature stood at 333.6 ± 2 °C and the Triple point temperature is reported as 405.6 ± 0.5 K.
Turning to `O=[N+]([O-])[O-].[Na+]` [sodium nitrate], the Normal melting temperature worked out at 306.5 ± 2 °C and the Triple point temperature is 545.5 ± 0.5 K.
